According to patent publication US20050124494A1, “Compositions comprising a phosphonic compound, and acids as methods for plant growth and regulatory effects” (priority 2003, published 2005):

Test system: Cotton
Test: Defoliation of cotton by ethephon with and without muratic acid, field trial Bells TN October 2003
Type: in vivo
Details: for Cotton LEAF DEFOLIATION 3 DA-A: rating date Oct. 13, 2003, 3 days after application; for Cotton LEAF DEFOLIATION 6 DA-A: rating date Oct. 16, 2003, 6 days after application
Description: A preferred mixture would be […] 10%-20% and Phosphoric Acid 1%-40%. This formulation would then be mixed with water as a carrier and applied to the foliage of the target plant at a rate of 3 gallons/Acre to 30 gallons/Acre.

[1] = ethephon 16 FL OZ/A (muratic acid 4 % V/V where combined)
[2] = ethephon 32 FL OZ/A (muratic acid 4 % V/V where combined)

| SMILES | Cotton LEAF DEFOLIATION 3 DA-A [1] [%] | Cotton LEAF DEFOLIATION 6 DA-A [1] [%] | Cotton LEAF DEFOLIATION 3 DA-A [2] [%] | Cotton LEAF DEFOLIATION 6 DA-A [2] [%] | Effect of added acid on efficacy of ethephon and speed of the effect on cotton defoliation (summary in words of Table 1) |
| --- | --- | --- | --- | --- | --- |
| O=P(O)(O)CCCl [ETHEPHON, (2-chloroethyl)phosphonic acid] | 10.8 | 19.6 | 16.7 | 16.7 |  |
| Cl [Muratic Acid] |  |  |  |  | increased the efficacy of ethephon and the speed of the effect |
